“Also recorded” adds a separate entry of the source.
What was measured:
[1] = tested on: L. (L.) amazonensis LTB0016 promastigotes; experiment: Promastigote in vitro susceptibility (Alamar Blue/resazurin), reference strain; type: cell-based, Leishmania amazonensis; conditions: LTB0016, 50 µM
Protocol: The fluorometric method of Alamar Blue® (resazurin) was used. Promastigotes grown in biphasic agar-blood medium, at the exponential phase of growth, were seeded in flat-bottom 96-well culture plates, at a cell density of 1 × 10^6 parasites mL^−1 (200,000 parasites/well), in 180 µL of RPMIc without phenol red. Subsequently, either a sole concentration (50 µM), or increasing concentrations of compounds or drugs were applied, according to each treatment group, in volumes of 2 µL. Plates were kept at 26 °C, in a humid chamber, for 72 h. […] Live parasites are metabolically active and capable of reducing non-fluorescent resazurin (blue) to fluorescent resorufin (red). Fluorescence intensity is directly proportional to the number of viable cells. […] At least two independent experiments were performed in duplicate. The effect of trivalent antimonial [SbIII, potassium antimonyl tartrate trihydrate, Sigma-Aldrich, (St. Louis, MO, USA)] was included as positive control of the assay.

[2] = tested on: L. (V.) braziliensis promastigotes, reference strain MHOM/BR/LTB300; conditions: reference strain MHOM/BR/LTB300; cited from earlier work
[3] = tested on: J774.1 macrophages, healthy or infected with LTB0016, VE98MR or VE2000MM; experiment: Nitric oxide (NO) production, Griess reaction; type: cell-based, murine; conditions: non-infected and infected macrophages; 48 h; 18: 1 and 2 µM; 22: 2 and 4 µM
Protocol: Following a previously described procedure, infected and uninfected macrophage cultures were treated with test compounds to analyze their effect in Leishmania host cell nitric oxide (NO) production. J774.1 macrophages, at the third day of growth, were collected and seeded in flat-bottom 96-well culture plates, at a density of 1 × 10^6 cells mL^−1 (2 × 10^5 macrophages/well), in 200 µL of RPMIc. The plates were incubated for 2 h; once the supernatant was discarded, the medium was replaced with 200 µL of RPMIc mixed with infectious promastigotes in the stationary phase of growth (1 × 10^7 parasites/mL, 2 × 10^6 parasites/well), so that the ratio macrophage: parasites was 1:10 [41]. The plates were then incubated for 4 h, the medium was replaced with fresh RPMIc and the test compounds were applied, according to the different treatment groups. The plates were kept in incubation for 48 h, at 37 °C and 5% CO2.
From the culture supernatants, 50-µL aliquots were recovered and transferred to a new 96-well plate to perform the Griess reaction, 50 µL of Solution 1 [1% sulfanilamide dissolved in 2.5% phosphoric acid] was added, incubated for 5 min at RT and in the dark. […] Finally, the colorimetric reading was performed at 550 nm. […] Levels of NO2^− (expressed as µM of NO2^−) were calculated from a calibration curve constructed with increasing concentrations of sodium nitrite (NaNO2). […]

[4] = tested on: L. (L.) braziliensis MHOM/BR/LTB300; parameters: method as in PMID 25240731; conditions: cited from earlier work

C=C(C)C1CCC2(C=NO)CCC3(C)C(CCC4C5(C)CCC(=NO)C(C)(C)C5CCC43C)C12 (stereo not shown) [Compound 18]
growth inhibition [1]: at least 75%
active concentration in L. (L.) braziliensis [2]: less than 10 µM
Nitric oxide (NO) production by macrophages [3]: neither 18 nor 22 induced nitric oxide production in infected macrophages; also recorded: not capable of inducing NO production in any of the strains tested; also recorded: not capable of inducing NO production for any of the strains tested
inhibition of parasite migration [4]: inhibited parasite migration at nano and picomolar concentrations
